Data on one molecule can be found in patent US20230190854A1, “METHOD OF REDUCING MUSCLE DAMAGE ASSOCIATED WITH INTENSIVE EXERCISE BY ADMINISTERING PURPLE-TEA EXTRACT” (ORYZA OIL & FAT CHEMICAL CO., LTD., priority 2020, published 2023).

The test system of this assay is Human umbilical vein endothelial cells (HUVEC). As to the kind of experiment: Evaluation of NO-production-promoting activity (NO2/NO3 Assay Kit-FX). It counts as cell-based. The conditions noted are these: 24 hours, sample solution 10 to 1000 μg/mL in medium containing 1% DMSO, culture supernatant. As to the method:
The purple-tea sample and the GHG sample obtained in the above example were dissolved in a medium containing 1% DMSO (concentration: 10 to 1000 μg/mL) to prepare a sample solution. A medium containing 1% DMSO was used for a control.
Human umbilical vein endothelial cells (HUVEC) (6.2×10^4 cells/500 μL) were seeded in 24-well plates, pre cultured for 1 day, then the medium was changed (450 μl). After that, a sample solution of 50 μL was added to each well to react for 24 hours. After the reaction, the culture supernatant was subjected to a measurement of a NO-production amount. For the measurement of the NO-production amount, “NO2/NO3 Assay Kit-FX” (trade name, manufactured by Dojindo Molecular Technologies, Inc.) was used. The results are shown in FIG. 2 (purple-tea extract) and FIG. 3 (GHG).
The NO2/NO3 Assay Kit-FX is a kit used for indirectly measuring NO in a sample by the fluorescence method, using the reaction between NO2^− and DAN (2,3-Diaminonaphthalene).

Consider `O=C(OC1OC2COC(=O)c3cc(O)c(O)c(O)c3-c3c(cc(O)c(O)c3O)C(=O)OC2C(O)C1OC(=O)c1cc(O)c(O)c(O)c1)c1cc(O)c(O)c(O)c1` [GHG, 1,2-di-O-galloyl-4,6-O-(S)-hexahydroxydiphenoyl-β-D-glucose], for which the “NO-production promoting effect (NO2−, NO3− and NO total production)” value is “has a NO3− and a NO-total production-promoting effect”.
